# According to US6737383B1, “Herbicidal oxadiazolidines” (priority 1999, dated 2004):
# Columns and labels:
# [1] = system: surinam grass; experiment: Test B pre/postemergence surinam grass; format: in vivo, Brachiaria decumbens
# Outline: (§1)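 Herbicidal effect was estimated by eye on a ten-point control scale after plants spent twelve to sixteen days in a greenhouse following soil or foliar treatment. Foliar sprays targeted plants at one to four leaves; all doses were formulated in a non-phytotoxic solvent with surfactant.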
# [2] = system: bamyardgrass; experiment: Test B flood test barnyardgrass; format: in vivo, Echinochloa crus-galli
# Outline: (§2)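 Plants were grown to the 2-leaf stage before treatment with test chemical, then held in a greenhouse for twelve to sixteen days. Injury was visually rated against untreated controls on a 0–10 scale, where 0 is no effect and 10 is complete control.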
# [3] = system: smallflower flatsedge; experiment: Test B flood test smallflower flatsedge; format: in vivo, Cyperus difformis
# Outline: as §2
# [4] = system: sugar beet; experiment: Test B pre/postemergence sugar beet; format: in vivo, Beta vulgaris; conditions: Preemergence
# Outline: as §1
# [5] = system: morningglory; experiment: Test B pre/postemergence morningglory; format: in vivo, Ipomoea hederacea
# Outline: as §1
# [6] = system: wild oat; experiment: Test B pre/postemergence wild oat; format: in vivo, Avena fatua; conditions: Preemergence
# Outline: as §1
# [7] = system: cocklebur; experiment: Test B pre/postemergence cocklebur; format: in vivo, Xanthium strumarium
# Outline: as §1
# [8] = system: crabgrass; experiment: Test B pre/postemergence crabgrass; format: in vivo, Digitaria sanguinalis
# Outline: as §1
# [9] = system: purple nutsedge; experiment: Test B pre/postemergence purple nutsedge; format: in vivo, Cyperus rotundus
# Outline: as §1
# [10] = system: pigweed; experiment: Test B pre/postemergence pigweed; format: in vivo, Amaranthus retroflexus
# Outline: as §1
# [11] = system: soybean; experiment: Test B pre/postemergence soybean; format: in vivo, Glycine max; conditions: Preemergence
# Outline: as §1
# [12] = system: rape; experiment: Test B pre/postemergence rape; format: in vivo, Brassica napus
# Outline: as §1
# [13] = system: corn; experiment: Test B pre/postemergence corn; format: in vivo, Zea mays
# Outline: as §1
# [14] = system: bedstraw; experiment: Test B pre/postemergence bedstraw; format: in vivo, Galium aparine
# Outline: as §1
# [15] = system: giant foxtail; experiment: Test B pre/postemergence giant foxtail; format: in vivo, Setaria faberii
# Outline: as §1
# [16] = system: rice; experiment: Test B flood test rice; format: in vivo, Oryza sativa
# Outline: as §2
# [17] = system: velvetleaf; experiment: Test B pre/postemergence velvetleaf; format: in vivo, Abutilon theophrasti; conditions: Preemergence
# Outline: as §1
# [18] = system: duck salad; experiment: Test B flood test duck salad; format: in vivo, Heteranthera limosa
# Outline: as §2
# [19] = system: blackgrass; experiment: Test B pre/postemergence blackgrass; format: in vivo, Alopecurus myosuroides
# Outline: as §1
# [20] = system: wheat; experiment: Test B pre/postemergence wheat; format: in vivo, Triticum aestivum; conditions: Preemergence
# Outline: as §1
# [21] = Preemergence, Rate 31 g/ha, visual rating, scale 0 to 10 (0 no effect, 10 complete control)
# [22] = Preemergence, Rate 62 g/ha, scale of 0 to 10 where 0 is no effect and 10 is complete control
# [23] = Preemergence, Rate 250 g/ha, scale of 0 to 10 where 0 is no effect and 10 is complete control
# [24] = Rate 31 g/ha, Postemergence, scale 0 to 10
# [25] = Rate 62 g/ha, Postemergence, scale of 0 to 10 where 0 is no effect and 10 is complete control
# [26] = Rate 125 g/ha, Preemergence, scale of 0 to 10 where 0 is no effect and 10 is complete control
# [27] = Rate 62 g/ha, headed Pre-emergence (flood test species), scale 0 to 10 (0 no effect, 10 complete control)
# [28] = Rate 125 g/ha, Pre-emergence, flood test species, scale 0 to 10 where 0 is no effect and 10 is complete control
# [29] = Rate 250 g/ha, Pre-emergence, flood-test species, scale 0 to 10, 0 is no effect, 10 is complete control
# [30] = Rate 500 g/ha, Pre-emergence, flood test species, scale 0 to 10 (0 no effect, 10 complete control)
# [31] = Rate 31 g/ha, visual rating, scale 0 to 10 (0 no effect, 10 complete control)
# [32] = Rate 62 g/ha, scale of 0 to 10 where 0 is no effect and 10 is complete control
# [33] = Rate 250 g/ha, scale of 0 to 10 where 0 is no effect and 10 is complete control
# [34] = Rate 125 g/ha, scale of 0 to 10 where 0 is no effect and 10 is complete control
# [35] = Rate 125 g/ha, Postemergence, scale 0 to 10
smiles,measurement,setting,value
C=C(Cn1c(=O)on(C(=O)N(c2ccc(F)cc2)C(C)C)c1=O)C[Si](C)(C)C [Compound 256],B. signalgrass plant response rating,[1]; [21],0
same,B. signalgrass plant response rating,[1]; [22],0
same,B. signalgrass plant response rating,[1]; [23],0
same,B. signalgrass plant response rating,[1]; [24],0
same,B. signalgrass plant response rating,[1]; [25],0
same,B. signalgrass plant response rating,"[1]; Rate 125 g/ha, Postemergence, scale 0 (no effect) to 10 (complete control)",0
same,B. signalgrass plant response rating,[1]; [26],0
same,"Plant response rating (0 to 10; 0 is no effect, 10 is complete control), B. signalgrass","[1]; Rate 250 g/ha, Postemergence",0
same,Barnyardgrass plant response rating,[2]; [27],0
same,Barnyardgrass plant response rating,[2]; [28],0
same,Barnyardgrass plant response rating,[2]; [29],0
same,Barnyardgrass plant response rating,[2]; [30],0
same,S. Flatsedge plant response rating,[3]; [27],0
same,S. Flatsedge plant response rating,[3]; [28],0
same,S. Flatsedge plant response rating,[3]; [29],0
same,S. Flatsedge plant response rating,[3]; [30],0
same,Sugarbeets plant response rating,[4]; [31],0
same,Sugarbeets plant response rating,[4]; [32],0
same,Sugarbeets plant response rating,[4]; [33],0
same,Sugarbeets plant response rating,[4]; [34],0
same,Morningglory plant response rating,[5]; [21],0
same,Morningglory plant response rating,[5]; [22],0
same,Morningglory plant response rating,[5]; [23],0
same,Morningglory plant response rating,[5]; [24],6
same,Morningglory plant response rating,[5]; [26],0
same,Wild oats plant response rating,[6]; [31],0
same,Wild oats plant response rating,[6]; [32],0
same,Wild oats plant response rating,[6]; [33],0
same,Wild oats plant response rating,[6]; [34],0
same,Cocklebur plant response rating,[7]; [21],0
same,Cocklebur plant response rating,[7]; [22],0
same,Cocklebur plant response rating,[7]; [23],0
same,Cocklebur plant response rating,[7]; [24],0
same,Cocklebur plant response rating,[7]; [25],0
same,Cocklebur plant response rating,[7]; [35],0
same,Cocklebur plant response rating,[7]; [26],0
same,"Plant response rating (0 to 10; 0 is no effect, 10 is complete control), Cocklebur","[7]; Rate 250 g/ha, Postemergence",0
same,Crabgrass plant response rating,[8]; [21],0
same,Crabgrass plant response rating,[8]; [22],0
same,Crabgrass plant response rating,[8]; [23],2
same,Crabgrass plant response rating,[8]; [24],0
same,Crabgrass plant response rating,[8]; [26],2
same,"Plant response rating (0 to 10; 0 is no effect, 10 is complete control), Crabgrass","[8]; Rate 250 g/ha, Postemergence",1
same,Nutsedge plant response rating,[9]; [23],0
same,Nutsedge plant response rating,[9]; [24],0
same,"Plant response rating (0 to 10; 0 is no effect, 10 is complete control), Nutsedge","[9]; Rate 250 g/ha, Postemergence",0
same,Redroot pigweed plant response rating,[10]; [21],0
same,Redroot pigweed plant response rating,[10]; [22],0
same,Redroot pigweed plant response rating,[10]; [23],0
same,Redroot pigweed plant response rating,[10]; [24],0
same,Redroot pigweed plant response rating,[10]; [26],0
same,"Plant response rating (0 to 10; 0 is no effect, 10 is complete control), Redroot pigweed","[10]; Rate 250 g/ha, Postemergence",4
same,Soybean plant response rating,[11]; [31],0
same,Soybean plant response rating,[11]; [32],0
same,Soybean plant response rating,[11]; [33],0
same,Soybean plant response rating,[11]; [34],0
same,Rape plant response rating,[12]; [21],0
same,Rape plant response rating,[12]; [22],0
same,Rape plant response rating,[12]; [23],0
same,Rape plant response rating,[12]; [24],0
same,Rape plant response rating,[12]; [26],0
same,"Plant response rating (0 to 10; 0 is no effect, 10 is complete control), Rape","[12]; Rate 250 g/ha, Postemergence",2
same,Corn plant response rating,[13]; [21],0
same,Corn plant response rating,[13]; [22],0
same,Corn plant response rating,[13]; [23],0
same,Corn plant response rating,[13]; [24],0
same,Corn plant response rating,[13]; [25],0
same,Corn plant response rating,[13]; [35],0
same,Corn plant response rating,[13]; [26],0
same,"Plant response rating (0 to 10; 0 is no effect, 10 is complete control), Corn","[13]; Rate 250 g/ha, Postemergence",0
same,Bedstraw plant response rating,[14]; [21],0
same,Bedstraw plant response rating,[14]; [22],0
same,Bedstraw plant response rating,[14]; [23],0
same,Bedstraw plant response rating,[14]; [24],0
same,Bedstraw plant response rating,[14]; [25],0
same,Bedstraw plant response rating,[14]; [35],0
same,Bedstraw plant response rating,[14]; [26],0
same,"Plant response rating (0 to 10; 0 is no effect, 10 is complete control), Bedstraw","[14]; Rate 250 g/ha, Postemergence",0
same,Giant foxtail plant response rating,[15]; [21],0
same,Giant foxtail plant response rating,[15]; [22],0
same,Giant foxtail plant response rating,[15]; [23],9
same,Giant foxtail plant response rating,[15]; [24],0
same,Giant foxtail plant response rating,[15]; [26],5
same,"Plant response rating (0 to 10; 0 is no effect, 10 is complete control), Giant foxtail","[15]; Rate 250 g/ha, Postemergence",0
same,Rice plant response rating,[16]; [27],0
same,Rice plant response rating,[16]; [28],0
same,Rice plant response rating,[16]; [29],0
same,Rice plant response rating,[16]; [30],0
same,Velvetleaf plant response rating,[17]; [31],0
same,Velvetleaf plant response rating,[17]; [32],0
same,Velvetleaf plant response rating,[17]; [33],0
same,Velvetleaf plant response rating,[17]; [34],0
same,Ducksalad plant response rating,[18]; [27],0
same,Ducksalad plant response rating,[18]; [28],0
same,Ducksalad plant response rating,[18]; [29],0
same,Ducksalad plant response rating,[18]; [30],0
same,Blackgrass plant response rating,[19]; [21],0
same,Blackgrass plant response rating,[19]; [22],0
same,Blackgrass plant response rating,[19]; [23],0
same,Blackgrass plant response rating,[19]; [24],0
same,Blackgrass plant response rating,[19]; [25],0
same,Blackgrass plant response rating,[19]; [35],0
same,Blackgrass plant response rating,[19]; [26],0
same,"Plant response rating (0 to 10; 0 is no effect, 10 is complete control), Blackgrass","[19]; Rate 250 g/ha, Postemergence",0
same,Wheat plant response rating,[20]; [31],0
same,Wheat plant response rating,[20]; [32],0
same,Wheat plant response rating,[20]; [33],0
same,Wheat plant response rating,[20]; [34],0
